The values below come from publication PMC6151660 (Molecules : A Journal of Synthetic Chemistry and Natural …, 2017).

Data set [1] has as its system M. tuberculosis H37RvMA pMSP12:GFP. Description: microbe, parasite or virus in culture. It is filed as cell-based. The settings on record: Mycobacterium tuberculosis.
Another data set relates to electric eel AChE. The arrangement: method as in Joubert et al., 2017 [23]. The settings on record: ref Joubert et al., 2017 [23]; cited from earlier work.
The test system of data set [2] is M. tuberculosis H37Rv:pCHERRY3. The data set is described as follows: microbe, parasite or virus in culture. It is filed as cell-based. The settings on record: Mycobacterium tuberculosis.
Data set [3] concerns the target equine butyrylcholinesterase (BuChE). The arrangement: method as in Joubert et al., 2017 [23]. The settings on record: ref Joubert et al., 2017 [23]; cited from earlier work.
Data set [4] can be described thus: Chinese hamster ovary cell cytotoxicity MTT assay. The settings on record: for CC50 at 44 h: CHO cells. How it is done:
Cytotoxicity was evaluated on CHO cells utilizing a standard 3-[4,5-dimethylthiazol-2-yl]-2,5-diphenyl tetrazolium bromide (MTT) assay. The MTT is a yellow tetrazolium salt that is reduced to purple formazan in the presence of living cells. This reduction reaction was used to measure growth and chemosensitivity. The test samples were tested in triplicate on one occasion. Cells were seeded in microtiter plates at a density of 10^5 cells/mL and incubated for 24 h prior to exposure. The test samples were prepared to a 20 mg/mL stock solution in 10% methanol or 10% DMSO and were tested as a suspension if not properly dissolved. Test compounds were stored at −20 °C until use, and administered in volumes of 100 µL to the plated cells. Emetine was used as the reference drug in all experiments. […] Plates were developed after 44 h of exposure to the drug by the addition of a solution of MTT. After four hours, further incubation at 37 °C the supernatant was removed from the cells via suction and DMSO was added to each well to dissolve the reduced dye crystals. […] The amount of formazan produced in wells containing untreated cells only and growth medium only represent 100% survival and 0% survival respectively, and the amount in each treatment well was converted to a survival percentage relative to these two extremes. The IC50 values were obtained from full dose-response curves, using a non-linear dose-response curve fitting analysis via GraphPad Prism v.4 software.
A general note: Formazan colour is commonly taken as a measure of viable cells.

For data set [5], the system named is Mycobacterium tuberculosis H37Rv. Description: microbe, parasite or virus in culture. It is filed as cell-based. The note with it: 120 h, day 5, read-out: % M. tuberculosis Growth, Day 5; for activity at 1 µM: 1 µM compound; for activity at 50 µM: 50 µM compound; for activity at 100 µM: 100 µM compound.
Data set [6] concerns SH-SY5Y cells. Description: SH-SY5Y cytotoxicity MTT assay. It is filed as cell-based, human. The settings on record: 48 h. How it is done:
(§1) The human neuroblastoma cell line SH-SY5Y was generously donated by our collaborator at the Division of Molecular Biology and Human Biology, Stellenbosch University, Tygerberg, Cape Town. Cells were cultured in monolayer using Dulbecco Modified Eagles Medium (DMEM, Gibco, Life Technologies Ltd. Carlsbad, CA, USA) supplemented with 10% fetal bovine serum (FBS, Gibco, Life Technologies Ltd.) and 1% 100 U/mL penicillin and 100 μg/mL streptomycin (Lonza Group Ltd., Basel, Switzerland). Cells were grown at 37 °C, in a humidified atmosphere at 5% CO2. Media were replaced every two to three days and cells were sub-cultured by splitting with trypsin (Lonza Group Ltd.).
(§2) The standard MTT assay which measures cell metabolic activity was used to determine cytotoxicity of CM14, CM15 and CM9 as described by Mosmann. Briefly, SH-SY5Y cells were plated in flat bottom 96 well plates in growth medium as stated in Section 3.7.1 at a density of 7500 cells/well. Cells were allowed to adhere to the plate surface for 24 h and used media were replaced with fresh media containing test compounds at 10 µM, 50 µM and 100 µM. Vehicle control cells were treated with DMSO (solvent for dissolving test compounds) at a concentration similar to the amount contained in the highest concentration of test compounds. After 48 h, 10 µL of MTT solution (5 mg/mL) was added to each well and incubated for 4 h and the purple formazan formed was solubilized with 100 µL DMSO and plates were read spectrophotometrically to determine absorbance at 570 nm using a BMG Labtech POLARStar Omega multimodal plate reader.

Data set [7] is described as follows: SH-SY5Y cytotoxicity MTT assay. The note with it: human, SH-SY5Y neuroblastoma cells, MTT, read-out: CC 50% SH-SY5Y (range where 50% cell toxicity will be observed). It is filed as cell-based, human. How it is done:
as §1, §2

Data set [8] has as its system SH-SY5Y cells. The data set is described as follows: MPP+-induced cytotoxicity in SH-SY5Y cells (neuroprotection). The note with it: 1000 μM MPP+ for 48 h.

As usually defined, the IC50 is the concentration needed to halve the response being measured.

Converted amounts (≈) assume the structure as drawn.

In data set [1], `Cc1c(Cl)c(=O)oc2cc(OCCN3CCC(Cc4ccccc4)CC3)ccc12` [CM8] registered an MIC90 of 19.6 µM (≈ 8.07 µg/mL) and an MIC99 of 25.2 µM (≈ 10.4 µg/mL). The IC50 with electric eel AChE is 31.3 µM. In [2], the MIC90 was found to be 40.5 µM (≈ 16.7 µg/mL) and the MIC99 was found to be 44.1 µM (≈ 18.2 µg/mL). For the same compound, in [3], the IC50 was 1.27 µM. Moreover, the CC50 at 44 h in [4] worked out at 33 µM. In addition, in data set [5], the activity at 1 µM worked out at 93.6%, the activity at 50 µM stood at 5.69% and the activity at 100 µM was determined as 4.62%.

For the compound `Cc1c(C#N)c(=O)oc2cc(OCCN3CCC(Cc4ccccc4)CC3)ccc12` [CM9], the “effect on viability of SH-SY5Y cells” value with SH-SY5Y cells [6] (10 µM) is recorded as “did not significantly affect”. The “effect on viability of SH-SY5Y cells” value in the data set with SH-SY5Y cells [6] (50 µM and 100 µM) is “significantly (p < 0.001) affected”. In addition, the CC50 at 48 h in [7] lay within 10 to 50 µM. The IC50 with electric eel AChE is 9.1 µM. For the same compound, the “cell survival restored after MPP+ exposure” value with SH-SY5Y cells [8] (1 µM compound, untreated control 100%) amounted to 81.86 ± 3.72%. For the same compound, in the data set with SH-SY5Y cells [8] (10 µM compound), the “maximal cytoprotection (cell viability) after MPP+ exposure” value turned out to be 92.2 ± 4.18%. Besides, the IC50 in [3] is 5.9 µM. Besides, in data set [5], the activity at 1 µM is 92.8%, the activity at 50 µM amounted to 7.75% and the activity at 100 µM is 6.19%.

For the compound `Cc1cc(=O)oc2cc(OCCN3CCN(Cc4ccc(Br)cc4)CC3)ccc12` [CM12], in [1], the MIC90 amounted to 14 µM (≈ 6.4 µg/mL) and the MIC99 was 29.7 µM (≈ 13.6 µg/mL). Further, the IC50 with electric eel AChE was 12.8 µM. Also, in [2], the MIC90 is 40.9 µM (≈ 18.7 µg/mL) and the MIC99 came out at 50.4 µM (≈ 23.1 µg/mL). In addition, the IC50 in [3] was 9.7 µM. The compound also returned a CC50 at 44 h in [4] of 15.5 µM. Also, in [5], the activity at 1 µM stood at 95.2%, the activity at 50 µM stood at 4.35% and the activity at 100 µM was 3.93%.

In data set [4] (Chinese hamster), `CC[C@H]1CN2CCc3cc(OC)c(OC)cc3[C@@H]2C[C@@H]1C[C@H]1NCCc2cc(OC)c(OC)cc21` [Emetine, reference compound] returned a CC50 of 0.06 µM.
